Test results taken from patent US4563453A, “Thiazine derivatives, processes for preparation thereof and pharmaceutical composition comprising the same” (Fujisawa Pharmaceutical Co., Ltd., priority 1983, dated 1986).

What was measured:
Arthus foot edema = Arthus foot edema (paw edema in rats); assay type: in vivo, Male Sprague-Dawley rats; conditions: rat, oral, 100 mg/kg, 60 minutes before phlogogen; edema volume 3 hours after egg albumin i.v./anti egg albumin antiserum subplantar
Procedure: TEST B (Arthus foot edema)
Five male Sprague-Dawley rats weighing about 200 g were used per group.
Paw edema was induced by intravenous injection of egg albumin (0.5 mg/rat) and subplantar injection of anti egg albumin antiserum (0.1 ml/rat) in Arthus type foot edema. The test drug was suspended in methylcellulose and administered orally 60 minutes before phlogogen. Paw volume was measured with plethysmometer (Ugo Basil Co., Ltd.) by water displacement immersing the paw to the lateral malleolus. The difference of paw volume before and 3 hours after the phlogogen was designated as edema volume. The data were analyzed statistically by student's t-test.

Carrageenin foot edema = Carrageenin foot edema (paw edema in rats); assay type: in vivo, Male Sprague-Dawley rats; conditions: rat, oral, 10.0 mg/kg, 60 minutes before phlogogen; edema volume 3 hours after 1% carrageenin
Procedure: TEST A (Carrageenin foot edema)
Male Sprague-Dawley rats weighing about 200 g were used in groups of five. Paw edema was induced by subplantar injection of 1% carrageenin (0.1 ml/rat) into the right hind paw. The test drug was suspended in 0.5% methylcellulose and administered orally 60 minutes before phlogogen. Paw volume was measured with plethysmometer (Ugo Basil Co., Ltd.) by water displacement immersing the paw to the lateral malleolus. The difference of paw volume before and 3 hours after the phlogogen was designated as edema volume. The data was analyzed statistically by student's t-test.

Structure (SMILES) | Inhibition (%) (Arthus foot edema) | Inhibition (%) (Carrageenin foot edema)
CN1C(C(=O)Nc2ccc(O)c(=O)cc2)=C(O)c2sccc2S1(=O)=O [4-Hydroxy-2-methyl-N-(2-hydroxy-1-oxo-2,4,6-cycloheptatrien-5-yl)-2H-thieno[2,3-e]-1,2-thiazine-3-carboxamide 1,1-dioxide] | 37.8% | –
CN1C(C(=O)Nc2cccccc2=O)=C(O)c2sccc2S1(=O)=O [(a), 4-Hydroxy-2-methyl-N-(1-oxo-2,4,6-cycloheptatrien-2-yl)-2H-thieno[2,3-e]-1,2-thiazine-3-carboxamide 1,1-dioxide] | – | 63.6%
CN1C(C(=O)Nc2cccccc2=O)=C(O)c2sc3ccccc3c2S1(=O)=O [(b), 4-Hydroxy-2-methyl-N-(1-oxo-2,4,6-cycloheptatrien-2-yl)-2H-[1]benzothieno[2,3-e]-1,2-thiazine-3-carboxamide 1,1-dioxide] | – | 34%
